This is an account of results in patent US20120015901A1, “METHODS AND PREPARATIONS FOR PROTECTING CRITICALLY ILL PATIENTS” (priority 2009, published 2012).

The subject of assay [1] is acute liver injury. To be noted: cited from earlier work.
In assay [2] the test system is wild type yeast (BY4741) and null mutants. As to the kind of experiment: Yeast chronological aging, survival plating (clonogenicity). The format is cell-based. As to the method: Experiments were carried out in BY4741 (MATa his3Δ1 leu2Δ0 met15Δ0 ura3Δ0) and respective null mutants, obtained from Euroscarf. The double mutant Δiki3Δsas3 was generated according to Gueldener at al. (2002) Nucleic Acids Res. 30, e23 by using gene-specific URA3-knockout cassette, amplified by PCR with pUG72 as template (Lovaas & Carlin (1991) Free Radic Biol Med 11, 455-46.). […] All spe1 double mutant strains were obtained through mating and sporulation of BY4741 Δspe1 with the respective BY4742 ([…]) single mutant strains. Single and double mutant strains were verified for correct gene deletion by PCR and further checked for consistent auxotrophies. […] Strains were grown at 28° C. on SC medium containing 0.17% yeast nitrogen base (Difco), 0.5% (NH4)2SO4 and 30 mg/l of all amino acids (except 80 mg/l histidine and 200 mg/l leucine), 30 mg/l adenine, and 320 mg/l uracil with 2% glucose (SCD). […] To construct NHP6A-EGFP in pUG35-Ura (giving rise to a C-terminally tagged chimeric fusion protein under control of the met25-Promotor) the insert was amplified by PCR using genomic DNA from BY4741 as template and cloned into pUG35 using the EcoRI restriction site. The EGFP-ATG8 construct in pUG36-Ura (N-terminally tagged fusion protein) was similarly generated, using EcoRI and ClaI restriction sites.
In case of experiments with Δspe1 (FIG. 24 A-E), all strains were inoculated to 5·10^4 cells/ml. […] Therefore, for calculation of survival rates in experiments using Δiki3Δsas3, cell numbers of each sample were determined after two pulse of sonication on ice with Sonifier 250 from Benson (Duty Cycle: 35; Output Control: 2.5). Tests for apoptotic (TUNEL and Annexin V staining) and necrotic (PI staining) markers as well as markers for oxidative stress (DHE staining) were performed as described in Dod et al. (1982) Eur J Biochem 121, 401-405). For quantifications using flow cytometry (BD FACSAria), 30,000 cells were evaluated and analyzed with BD FACSDiva software. Spermidine (S4139, Sigma, Austria) and putrescine (P5780, Sigma, Austria; 1 mM final concentration) were added to stationary cultures at day 1 of the aging experiments (24 h after inoculation). 1 M aqueous stock solution of spermidine was stored in one use aliquots at −20° C. for no longer than 1 month. For adjustment of extracellular pH (pHex) to 6 (±0.5), the required amount of sodium hydroxide was added 30 h after inoculation. The pHex was maintained at approximately 6 (±0.5) throughout the aging.

Where two headings read alike, the source gives them in different places.

In the case of `NCCCCN` [putrescine, 1,4-diamino-butane], the “effect on acute liver injury” value was “protective effect” in assay [1] (administered 2, 5 and 8 hours after injection of cadmium chloride); “did not provide a protective effect” in assay [1] (administered 12, 15 and 18 h after cadmium injection). The “chronological life span of polyamine depleted cells” value in assay [2] was “restored”.
